{
  "source": "patent US11932898B2",
  "about": "“Precision therapeutic biomarker screening for cancer” (UNIVERSITY OF MIAMI, priority 2016, dated 2024)",
  "key": {"[1]": {"system": "human tumor cell lines", "assay": "component-wise IC50 values of the SANGER drug sensitivity dataset, clustered by generalized FMMR cell line components", "format": "cell-based", "conditions": "for magnitude of IC50s for overlapping component 12: component-wise IC50 boxplots, FIG. 11A-11E, cell line components 1, 2 and 12", "description": "Cancer cell lines have frequently been used as a convenient way of conducting such studies. For a systematic search of therapeutic biomarkers to a variety of cancer drugs, Garnett et al. (2012) screened 639 human tumor cell lines which represent much of the tissue-type and genetic diversity of human cancers with 130 drugs. These drugs, including approved drugs, drugs in development as well as experimental tool compounds, cover a wide range of targets and processes involved in cancer biology. In the Garnett et al. work, a range of 275-507 cell lines were screened for each drug. The effect of a 72 h drug treatment on cell viability was used to derive measures of drug sensitivity, including the half-maximal inhibitory concentration (IC50). In addition, the cell lines underwent sequencing of 64 known cancer genes, genome-wide analysis of copy number gains and losses, and expression profiling of 14,500 genes.\nWe applied the innovative techniques herein to analyzing the SANGER high throughput drug sensitivity dataset for cancer. […] The responses, made up with IC50 values from pairwise drug-cell-line screening, has some missing values. Therefore the data was first filtered by removing cell lines for which less than 50% of the drugs were tested, resulting in 591 cell lines remaining. In the remaining data, about 37.4% of the cell lines are with missing values. These missing values are imputed via the random forest imputation algorithm (Ishwaran, Kogalur, Blackstone and Lauer 2008; Stekhoven and Buhlmann 2012).\nIn order to identify patterns of cancer-specific therapeutic biomarkers, we employed method gEMseplasso in the analysis. […]\nIn the second step, the process uses an affinity-propagation clustering (APC) algorithm (Frey and Dueck 2007) to group the 140 drugs based on results from the first step. […] The pair-wise similarity matrix required by the algorithm as input data is calculated from the Euclidean distance between Za and Zb. […] The pair-wise similarity matrix is calculated from the Euclidean distance between Bk^a and Bk^b for k=1, . . . , 3. […]"}, "[2]": {"system": "soft tissue cancer", "conditions": "soft tissue cancer resistant to standard chemotherapy (doxyrubicin); small sample size phase II study; cited from earlier work"}, "[3]": {"system": "chronic myeloid leukemia (CML)", "conditions": "cited from earlier work"}},
  "data": [
    {"molecule": "COc1cc2ncn(-c3cc(OCc4ccccc4C(F)(F)F)c(C(N)=O)s3)c2cc1OC", "note": "[GW843682X]", "values": [
      {"measurement": "component with highest IC50s", "setting": "[1]; among cell line components 1, 2, and 12", "value": "component 2"},
      {"measurement": "magnitude of IC50s for overlapping component 12", "setting": "[1]", "value": "between those for component 1 and 2"}
    ]},
    {"molecule": "Nc1ccn([C@@H]2O[C@H](CO)[C@@H](O)C2(F)F)c(=O)n1", "note": "[Gemcitabine]", "values": [
      {"measurement": "effectiveness in soft tissue cancer", "setting": "[2]", "value": "effective"}
    ]},
    {"molecule": "Nc1ccccc1NC(=O)c1ccc(CNC(=O)OCc2cccnc2)cc1", "note": "[MS.275]", "values": [
      {"measurement": "magnitude of IC50s for overlapping component 12", "setting": "[1]", "value": "between those for component 1 and 2"}
    ]},
    {"molecule": "Cc1ccc(NC(=O)c2ccc(CN3CCN(C)CC3)cc2)cc1Nc1nccc(-c2cccnc2)n1", "note": "[imatinib]", "values": [
      {"measurement": "blood counts", "setting": "[3]; CML patients who had exhausted standard treatment options, tested in 1998", "value": "returning to normal"},
      {"measurement": "five-year survival rate", "setting": "[3]; CML patients", "value": 95, "unit": "%"}
    ]}
  ]
}
